Data from US6921775B2, “Methods for modulating brain damage” (Children's Medical Center Corporation, priority 2001, dated 2005).

Legend:
OL precursor cells = experiment: Cell lineage progression (stage-specific markers A2B5, O4, O1, MBP) in OL precursor cultures; assay type: cell-based, rat; conditions: topiramate 30 μM, NBQX 100 μM; 0, 2, 6 and 10 days of maturation
Description: Primary oligodendrocyte precursor cells were isolated from mixed glial cultures of the forebrains of newborn Sprague-Dawley rats using a selective detachment procedure as described in detail elsewhere (McCarthy and de Vellis, 1980; Back et al., 1998), and further purified by differential adhesion (Back et al., 1998). Precursor cells were maintained in a chemically-defined medium (CDM) supplemented with recombinant human platelet derived growth factor-AA (PDGF, 10 ng/ml) and basic fibroblast growth factor (bFGF, 10 ng/ml). The CDM was Dulbecco Modified Eagle's Medium (DMEM) containing D-glucose (25 mM), L-glutamine (4 mM), sodium pyruvate (1 mM), human apo-transferrin (50 μg/ml), bovine pancreatic insulin (5 μg/ml), sodium selenium (30 nM), hydrocortisone (10 nM), D-biotin (10 nM), and bovine serum albumin (BSA, 1 mg/ml). All chemicals were from Sigma. […] Cell lineage progression was monitored by the sequential emergence of stage-specific immunochemical markers: A2B5, O4, O1, and MBP, as described previously (Back et al., 1998). […] The effect of these protocols on maturation was also assessed. Differentiation of the cultures in the absence or presence of topiramate (30 μM) or NBQX (100 μM) was monitored by cell morphology and the sequential emergence of a panel of OL stage-specific markers (A2B5, O4, O1, and MBP), following 0, 2, 6, and 10 days of maturation.

[1] = tested on: AMPA receptors in cerebral white matter; experiment: Intracerebral AMPA injection white matter injury; assay type: in vivo; conditions: P7 rats, 5 nmol AMPA plus 5 nmol MK-801, systemic NBQX post-treatment, t test p<0.005
Description: The methods used in this example are described in Follett et al. (2000) J. Neurosci. 20:9235-9241, incorporated by reference herein.
NBQX attenuation of the selective white matter injury after hypoxia/ischemia implicated GluR-mediated toxicity as an important mechanism of injury in immature OLs. To confirm a relationship between the activation of AMPA receptors in cerebral white matter and the vulnerability to injury, AMPA was injected directly into immature white matter. […] Minimal to no injury was present in vehicle-injected controls (M K801 alone; n=7) at the same age (t test, p<0.001).
To determine whether AMPA toxicity was age dependent, lesion size after intracerebral AMPA injections at P4, P7, and P11 was compared.

Compound: CC1(C)O[C@@H]2[C@@H](CO[C@@]3(COS(N)(=O)=O)OC(C)(C)O[C@@H]23)O1 [topiramate]
- progression along the OL lineage (morphology, A2B5, O4, O1, MBP) (OL precursor cells): indistinguishable from the progression of the control cultures

Compound: NS(=O)(=O)c1cccc2c1c([N+](=O)[O-])cc1nc(O)c(O)nc12 [NBQX, 2,3-Dioxo-6-nitro-1,2,3,4-tetrahydrobenzo[f]quinoxaline-7-sulphonamide]
- white matter injury (lesion size) after intracerebral AMPA [1]: significantly attenuated white matter injury
- progression along the OL lineage (morphology, A2B5, O4, O1, MBP) (OL precursor cells): indistinguishable from the progression of the control cultures
